Data set [1] concerns arachidonic acid-induced swelling of the ear in female Sabra mice. As to the kind of experiment: Arachidonic acid-induced ear inflammation in the mouse. The data set is classed as in vivo. Particulars: for arachidonic acid-induced ear swelling: injected 30 to 90 min before arachidonic acid. Here is the method: The other ear was treated with […] of EtOH and served as a control. Ear swelling was assessed by measuring ear thickness with a dial thickness gauge (Mitutoyo, Japan) just before treatment and every 15 min after A′A application for 90 min. […] N=5 for each treatment group.
Ear inflammation was measured by assessing ear tissue swelling after topical application of arachidonic acid. […] J., Wagner, B., Ballaron, S. & De Young, L. M. (1984) J. Invest. Dernlatol. 82, 367–371]. […] The opposite ear served as a control ([…] ethanol). Ear thickness was determined (in 0.01 mm units) every 15 min for 90 min starting immediately after arachidonic acid application using a dial thickness gauge (Mitutoyo, Japan).

Data set [2] has as its system formalin-induced peripheral pain in mice. As to the kind of experiment: Formalin test for peripheral pain. Type of data set: in vivo, mouse. Here is the method: Pain was assessed as the total number of licks of the injected hindpaw recorded for the duration of one hr. Early (5 min) and late (25–60 min) phase pain were observed as described in Calignano, A., La Rana, G., Giuffrida, A. & Piomelli, D. (1998) Nature (London) 394, 277–280.
Pain mediated by the peripheral nervous system, was tested in the “formalin test” for cutaneous (peripheral) pain [Tjolson, A., Berge, O-G., Hunskaar, S., Rosland, J. H. and Hole, K. (1992) Pain, 51, 5–17; Calignano, A., La Rana, G., Giuffrida, A & Piomelli, D. (1998) Nature (London) 394, 277–280; and Jagger, S. I., Hasnie, F. S., Sellaturay, S. and Rice, A.S.C. (1998) Pain 76, 189–199]. […] Immediately after formalin administration pain was assessed every 5 min for 1 hr by the number of times the animal licks the formalin-injected paw.

The subject of a further data set is female C57/BL6 mice. Here is the method:
This difference in binding is reflected in the results of the pharmacological assays. […] Such effects are considered to be mediated by the CBI receptor.
R. (1993) Eur. J. Pharmacol. 231, 313–314]. At various times after injection mice were tested in four assays consecutively. The four assays were (1) motor activity (ambulation and rearing) in an open field (20×30 cm, divided into 12 squares of equal size) for 8 min; (2) immobility (“catalepsy”) on a ring of 5.5 cm diameter for 4 min; (3) body temperature with a telethermometer (Yellow Springs Instruments Co.); and (4) analgesia on a hot plate maintained at 55° C., measured as the latency (in seconds) until the first hind paw lick or jump from the plate (the latter response was rarely observed) with a maximum of 45 s.

The test system of another data set is anesthetized rats. As to the kind of experiment: Blood pressure assay in anesthetized cannulated rats. Type of data set: in vivo, rat. As to the method: Systemic blood pressure was monitored in male rats (Sabra strain, 270–350 g). A chronic cannula (P 50, Clay Adams) was implanted into the femoral artery under pentobarbital anesthesia (60 mg/kg). The jugular vein was cannulated for drug administration. The arterial cannula was attached to a pressure transducer (Db23, Statham City) and the transducer was connected to a data acquisition system (CODAS software and scroller card, Dataq, Ohio). Pressure was sampled at a rate of 1/s.
Recordings were taken for 30–60 min before treatment.

In data set [3] the test system is experimental autoimmune arthritis in CD-1 male mice. As to the kind of experiment: Experimental autoimmune arthritis (collagen type 2 in complete Freund's adjuvant). The data set is classed as in vivo, mouse. As to the method:
Experimental autoimmune arthritis is induced in animals by immunization with collagen type 2 in complete Freund's adjuvant.
Adult CD-1 male mice (27–33 gr), at least five per treatment group, are used in the study. Each animal is administered 100 μg/ml collagen type 2 in 0.1 mL complete Freund's adjuvant. The collagen is administered subcutaneously into the base of the tail. The volume of each hind paw is measured using a plethysmometer (commercially available from Hugo Basill of Italy) before collagen administration and on days 1, 4, 7, 10, 13, and 16 of treatment (30 minutes after drug treatment). […] All treatments are administered intraperitoneally. […] The same procedure is performed with blank cosolvent. Diclofenac is prepared at Pharmos, as a solution of 1 mg/ml. At the same time the paws are measured they are also clinically evaluated according to the method of R. O Williams, Proc. Natl. Acad. Sci. USA: 89: 9784–9788, wherein 0=normal, 1=slight swelling and erythema, 2=pronounced edematous swelling, and 3=joint rigidity.
The major arthritis related sign that is evident in experimental autoimmune arthritis is swelling of the paws. […] The differences are compared using a non parametric analysis (Wilcoxon Rank Sum Test).

In data set [4] the test system is acetic acid induced inflammatory bowel disease in male Sprague Dawley rats. The experiment in a line: Acetic acid induced inflammatory bowel disease. Type of data set: in vivo, rat. Here is the method: Animals were clinically followed for 1 week and body weight, presence of blood in the stool, and stool consistency were monitored and recorded daily and scored on a scale of 0–4 according to the scale provided in Table 1 [Murthy et al., Dig. Dis. Sci., 38(9), 1722–1734, (1993)].
Seven days post disease induction animals were euthanized with phenobarbital (100 mg/kg i.p.), the whole colon excised, slit longitudinally, and examined under a magnifying glass. Any visible damage to the colon was recorded and scored.
Clinical outcome was analyzed using analysis of variance (ANOVA) followed by Duncan's post hoc test. A non-parametric test (Wilcox Rank Sum Test) was used to evaluate the gross pathology findings.

The next data set concerns female Sabra mice. As to the kind of experiment: Inhibition of intestinal motility (fecal pellets voided over 2 hr). Type of data set: in vivo, mouse. As to the method: Intestinal motility was assessed every 15 min (over a 2 hr period) by the cumulative number of fecal pellets voided in a two hour period after separating the mice into individual cages. […] By 90 min all treated groups differed from controls.
Rectal temperature was also recorded as a measure of central activity.

The next data set relates to EAE in Lewis rats. The experiment in a line: Experimental autoimmune encephalomyelitis (EAE). The data set is classed as in vivo, rat. Particulars: intravenous, treatment from day 10 to day 18 post induction.
A further data set addresses CB2 receptor (Homo sapiens, UniProt P34972). The note with it: background, known compound; cited from earlier work.
Setting [5] is: 40 mg/kg i.p., tested 10, 30 or 150 min after administration.

CB2 receptor, sequence (P34972 whole entry): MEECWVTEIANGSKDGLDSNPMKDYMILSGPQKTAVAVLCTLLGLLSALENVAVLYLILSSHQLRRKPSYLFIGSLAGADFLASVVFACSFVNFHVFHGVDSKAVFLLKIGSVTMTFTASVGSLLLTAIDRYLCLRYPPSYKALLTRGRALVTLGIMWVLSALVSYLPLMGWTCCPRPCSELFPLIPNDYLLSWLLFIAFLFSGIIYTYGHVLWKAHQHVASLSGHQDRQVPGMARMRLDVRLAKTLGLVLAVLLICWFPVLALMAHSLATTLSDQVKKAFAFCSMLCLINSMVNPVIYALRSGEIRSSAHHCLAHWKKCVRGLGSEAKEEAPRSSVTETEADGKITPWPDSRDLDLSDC

Take `CCCCCCC(C)(C)c1cc(OC)c([C@H]2C=C(CO)[C@H]3CC2C3(C)C)c(OC)c1` (single isomer, unassigned; (+)) [HU-308, (+)-(1-a-H,-(3-H,5-a-H)-4-(2,6-dimethoxy-4-(1,1-dimethylheptyl)phenyl]-6,6-dimethylbicycloj3.1.1]hept-2-ene-2-carbinol]: the “arachidonic acid-induced ear swelling” value in data set [1] (50 mg/kg i.p.) is “significant reduction of arachidonic acid-induced ear swelling”. Also, the “anti-inflammatory effect of HU-308 after CB1 antagonist SR 141716A” value in data set [1] (SR 141716A 5 mg/kg administered 15 min before HU-308 50 mg/kg i.p.) is reported as “did not prevent the anti-inflammatory effect of HU-308”. Besides, in data set [1] (SR 144528 0.5 mg/kg before HU-308 50 mg/kg i.p.), the “anti-inflammatory effect of HU-308 after CB2 antagonist SR 144528” value is “reduced the anti-inflammatory effect of HU-308”. Also, the “formalin-induced peripheral pain (licks of injected hindpaw), late phase” value in data set [2] (50 mg/kg i.p., 90 min before formalin, late phase (25-60 min)) is “reduced peripheral pain during the late phase of pain behavior”. In data set [2] (50 mg/kg i.p., early (5 min) and late (25-60 min) phase), the “formalin-induced peripheral pain, early versus late phase” value is on record as “effects were only observed during the late phase”. In addition, the “peripheral analgetic effect after CB1 antagonist SR 141716A” value in data set [2] (SR 141716A injected 15 min before HU-308) is given as “not by SR 141716A”. Also, the “peripheral analgetic effect after CB2 antagonist SR 144528” value in data set [2] (SR144528 injected 15 min before HU-308 50 mg/kg i.p.) was “prevented by SR 144528”. Also, in the data set on female C57/BL6 mice (setting [5]), the “activity in an open field trial (ambulation, rearing)” value is recorded as “no decrease in their activity in an open field trial”; the “analgesia on a hot plate” value was “no analgesia on a hot plate”; the body temperature result is reported as “no reduction in body temperature”; the “catalepsy (immobility on a ring)” value is on record as “no catalepsy”. Further, the “activity in the tetrad of behavioral tests specific for THC-type CNS activity” value with female C57/BL6 mice (mice, summary) is “no activity”. The “effect on blood pressure” value in the data set with anesthetized rats (30 mg/kg i.v., anesthetized cannulated rats) is recorded as “lowers blood pressure”. In addition, the “hypotensive effect after CB1 antagonist SR 141716A” value with anesthetized rats (SR141716A 3 mg/kg injected 5 min prior to HU-308 30 mg/kg i.v.) is “not by the CB1 antagonist SR 141716A”. Moreover, the “hypotensive effect after CB2 antagonist SR 144528” value in the data set with anesthetized rats (SR144528 1 mg/kg injected 5 min prior to HU-308 30 mg/kg i.v.) is on record as “blocked by the CB2 antagonist SR 144528”. For the same molecule, the “time for blood pressure effect to return to normal after administration” value in the data set with anesthetized rats (i.v. bolus, preliminary observations) is reported as less than 30 min. Further, the “effect on blood pressure, lower doses” value with anesthetized rats (i.v. doses lower than 30 mg/kg) was “did not have a significant effect”. Further, the “incidence and severity of swelling of the paws” value in data set [3] (2-15 mg/kg i.p. every three days or once daily) was “decreased incidence and severity of swelling of the paws”. In addition, the “severity of acid induced inflammatory bowel disease” value in [4] (10 and 20 mg/kg i.p. daily for seven days) was “can reduce the severity of acid induced inflammatory bowel disease”. In [4] (i.p. daily for 7 days, p<0.05 for 10 mg/kg, p=0.052 for 20 mg/kg), the “reduction of pathological lesion severity in the gastrointestinal tract (gross pathology score) compared to vehicle” value came out at 35%. Moreover, in the data set on female Sabra mice (20 mg/kg i.p., mice), the “inhibition of intestinal mobility” value is “complete inhibition of intestinal mobility”. The “number of fecal boli voided vs controls” value in the data set with female Sabra mice (100 mg/kg i.p., after 75 min) was “significantly fewer boli than controls”. In addition, the “inhibition of intestinal motility in presence of CB2 antagonist SR144528” value in the data set on female Sabra mice (HU-308 plus SR144528) is reported as “in part blocked this effect”. Further, the “mean clinical score of EAE” value in the data set with EAE in Lewis rats is “diminution of mean clinical score”.
As for `C=C1CC[C@@H]2[C@@H](C1)c1c(OC)cc(C(C)(C)CCCCCC)cc1OC2(C)C` [L-759,656], on CB2 receptor, the CB1/CB2 binding ratio is listed as greater than 1000.
Take `Cc1c(C(=O)NN2CCCCC2)nn(-c2ccc(Cl)cc2Cl)c1-c1ccc(Cl)cc1` [SR 141716A]: the “arachidonic acid-induced ear swelling, antagonist by itself” value in [1] (5 mg/kg i.p., alone) is reported as “by itself reduced arachidonic acid-induced ear swelling”.
On to `O=C(O)Cc1ccccc1Nc1c(Cl)cccc1Cl` [diclofenac, reference compound], for which the “paw volume compared to vehicle” value in data set [3] (10 mg/kg i.p. every 3 days, positive control) is “smaller paw volume compared to the vehicle treated rats, but this difference is not statistically significant”.
On to `COc1ccc2c(c1)c(CC(=O)O)c(C)n2C(=O)c1ccc(Cl)cc1` [indomethacin], for which the “arachidonic acid-induced ear swelling” value in data set [1] (20 mg/kg i.p.) is reported as “significant reduction of arachidonic acid-induced ear swelling”. Besides, in [1] (indomethacin 20 mg/kg i.p.), the “anti-inflammatory effect compared with HU-308 (50 mg/kg)” value is on record as “greater than that produced by HU-308”.
Consider SR 144528, for which the “anti-inflammatory effect, antagonist by itself” value in [1] (0.5 mg/kg, alone) was “did not by itself induce an anti-inflammatory effect”.

Values taken from patent US7214716B2, “Agonists specific for the peripheral cannabinoid receptor” (Yissum Research Development Co. of the Hebrew University of …, priority 2000, dated 2007).
